{
  "source": "paper PMC6199744",
  "about": "“Development of Chemical Proteomics for the Folateome and Analysis of the Kinetoplastid Folateome” (ACS Infectious Diseases, 2018)",
  "assay_type_in_all_cases": "binding",
  "key": {"[1]": {"biological_target": "T1, HeLa cell extract proteins (Homo sapiens, UniProt P14373)", "T1 construct": "endogenous in cells; host or cells: HeLa cell extract", "T1 sequence (P14373 1-513)": "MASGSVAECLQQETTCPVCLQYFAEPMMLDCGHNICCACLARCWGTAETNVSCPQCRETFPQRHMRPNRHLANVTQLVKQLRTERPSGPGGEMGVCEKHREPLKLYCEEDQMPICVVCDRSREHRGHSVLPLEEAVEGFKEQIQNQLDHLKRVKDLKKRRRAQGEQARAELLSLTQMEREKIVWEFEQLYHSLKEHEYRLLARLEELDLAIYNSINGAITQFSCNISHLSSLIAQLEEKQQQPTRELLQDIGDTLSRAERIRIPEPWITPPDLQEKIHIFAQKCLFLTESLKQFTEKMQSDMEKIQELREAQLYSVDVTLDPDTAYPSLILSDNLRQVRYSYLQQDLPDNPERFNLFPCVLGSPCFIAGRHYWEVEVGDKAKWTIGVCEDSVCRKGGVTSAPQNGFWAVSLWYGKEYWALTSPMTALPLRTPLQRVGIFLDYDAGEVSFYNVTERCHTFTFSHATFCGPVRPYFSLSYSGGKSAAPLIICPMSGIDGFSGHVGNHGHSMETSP"}, "[2]": {"biological_target": "T2, HeLa cell extract proteins (Homo sapiens, UniProt Q9P2E9)", "T2 construct": "endogenous in cells; host or cells: HeLa cell extract", "T2 sequence (Q9P2E9 1-1410)": "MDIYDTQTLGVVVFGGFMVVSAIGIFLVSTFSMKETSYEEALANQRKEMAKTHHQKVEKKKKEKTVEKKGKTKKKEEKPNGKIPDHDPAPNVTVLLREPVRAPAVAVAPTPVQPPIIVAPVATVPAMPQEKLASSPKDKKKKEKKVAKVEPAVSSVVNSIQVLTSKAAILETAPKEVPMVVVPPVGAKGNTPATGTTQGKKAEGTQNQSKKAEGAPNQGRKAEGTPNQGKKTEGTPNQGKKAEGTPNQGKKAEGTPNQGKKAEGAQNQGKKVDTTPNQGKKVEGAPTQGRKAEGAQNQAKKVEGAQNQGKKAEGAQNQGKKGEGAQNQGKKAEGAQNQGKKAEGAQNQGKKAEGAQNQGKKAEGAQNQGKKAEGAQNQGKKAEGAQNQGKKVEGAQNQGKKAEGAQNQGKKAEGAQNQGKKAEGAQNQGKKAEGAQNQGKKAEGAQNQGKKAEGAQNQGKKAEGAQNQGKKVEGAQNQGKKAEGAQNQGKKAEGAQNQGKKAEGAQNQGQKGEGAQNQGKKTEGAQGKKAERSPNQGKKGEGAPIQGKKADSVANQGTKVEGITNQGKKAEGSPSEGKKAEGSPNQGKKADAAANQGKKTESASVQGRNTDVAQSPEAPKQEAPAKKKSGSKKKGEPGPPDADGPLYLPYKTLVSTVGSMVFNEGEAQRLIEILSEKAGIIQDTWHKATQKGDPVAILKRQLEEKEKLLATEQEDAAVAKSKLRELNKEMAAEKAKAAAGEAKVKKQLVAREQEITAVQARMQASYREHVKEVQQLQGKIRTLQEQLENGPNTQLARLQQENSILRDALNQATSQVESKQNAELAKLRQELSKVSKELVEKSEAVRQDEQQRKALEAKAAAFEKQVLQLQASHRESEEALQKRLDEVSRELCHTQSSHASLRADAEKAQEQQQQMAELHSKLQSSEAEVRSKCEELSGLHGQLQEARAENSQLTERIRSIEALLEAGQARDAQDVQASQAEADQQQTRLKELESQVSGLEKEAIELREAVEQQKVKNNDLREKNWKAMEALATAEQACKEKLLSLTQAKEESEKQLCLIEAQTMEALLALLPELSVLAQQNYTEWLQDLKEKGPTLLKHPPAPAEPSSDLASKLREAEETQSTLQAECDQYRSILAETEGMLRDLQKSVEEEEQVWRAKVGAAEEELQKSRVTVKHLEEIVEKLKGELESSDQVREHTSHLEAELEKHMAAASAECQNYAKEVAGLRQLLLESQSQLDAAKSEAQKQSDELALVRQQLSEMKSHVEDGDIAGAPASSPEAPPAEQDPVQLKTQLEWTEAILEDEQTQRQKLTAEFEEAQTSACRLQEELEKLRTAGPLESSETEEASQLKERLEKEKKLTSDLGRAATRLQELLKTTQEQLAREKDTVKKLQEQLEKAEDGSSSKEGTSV"}, "[3]": {"biological_target": "T3, HeLa cell extract proteins (Homo sapiens, UniProt Q15020)", "T3 construct": "endogenous in cells; host or cells: HeLa cell extract", "T3 sequence (Q15020 1-963)": "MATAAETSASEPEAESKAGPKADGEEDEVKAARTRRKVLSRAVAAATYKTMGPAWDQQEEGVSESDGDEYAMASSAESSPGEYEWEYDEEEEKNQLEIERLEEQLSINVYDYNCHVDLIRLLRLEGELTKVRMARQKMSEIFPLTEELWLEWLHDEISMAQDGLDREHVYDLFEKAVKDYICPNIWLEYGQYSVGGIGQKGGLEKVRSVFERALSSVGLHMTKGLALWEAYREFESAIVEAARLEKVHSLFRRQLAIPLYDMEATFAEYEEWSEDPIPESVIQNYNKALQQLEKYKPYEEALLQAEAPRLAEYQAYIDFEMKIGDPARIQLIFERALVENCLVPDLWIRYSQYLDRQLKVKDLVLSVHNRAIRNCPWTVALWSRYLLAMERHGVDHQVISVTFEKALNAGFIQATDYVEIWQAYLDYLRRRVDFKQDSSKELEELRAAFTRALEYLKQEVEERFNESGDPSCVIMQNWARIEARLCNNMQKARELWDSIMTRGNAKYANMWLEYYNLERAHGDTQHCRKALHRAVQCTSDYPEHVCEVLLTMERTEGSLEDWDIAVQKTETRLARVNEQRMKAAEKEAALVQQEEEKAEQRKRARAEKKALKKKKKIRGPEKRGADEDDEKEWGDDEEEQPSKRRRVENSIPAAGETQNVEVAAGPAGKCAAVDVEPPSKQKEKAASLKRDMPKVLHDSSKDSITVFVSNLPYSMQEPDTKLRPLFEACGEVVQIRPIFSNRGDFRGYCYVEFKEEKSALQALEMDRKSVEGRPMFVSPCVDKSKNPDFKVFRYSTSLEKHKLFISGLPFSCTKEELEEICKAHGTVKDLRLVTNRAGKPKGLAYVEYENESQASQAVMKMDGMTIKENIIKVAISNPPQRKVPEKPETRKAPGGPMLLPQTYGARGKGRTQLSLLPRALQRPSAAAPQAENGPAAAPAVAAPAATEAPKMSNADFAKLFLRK"}, "[4]": {"biological_target": "T4, HeLa cell extract proteins (Homo sapiens, UniProt P62888)", "T4 construct": "endogenous in cells; host or cells: HeLa cell extract"}, "[5]": {"biological_target": "T5, HeLa cell extract proteins (Homo sapiens, UniProt P62495)", "T5 construct": "endogenous in cells; host or cells: HeLa cell extract", "settings": "protein ETF1; HeLa"}},
  "note": "Like-named read-outs stand apart in the source and are kept apart here.",
  "data": [
    {"smiles": "Nc1nc2c(c(=O)[nH]1)N(C=O)C(CNc1ccc(C(=O)N[C@@H](CCC(=O)O)C(=O)O)cc1)CN2", "note": "(stereo partly shown) [LEU, leucovorin]", "values": [
      {"measurement": "fold changes relative to vehicle control", "setting": "[1]; HeLa, captured protein TRIM27", "result": 0.97},
      {"measurement": "fold changes relative to vehicle control", "setting": "[2]; HeLa, protein RRBP1", "result": 1.08},
      {"measurement": "fold changes relative to vehicle control", "setting": "[3]; protein SART3, HeLa", "result": 0.82},
      {"measurement": "fold changes relative to vehicle control", "setting": "[4]; protein RPL30, HeLa", "result": 0.86}
    ]},
    {"smiles": "NCCCNc1ccc(C(=O)NC(CCC(=O)O)C(=O)O)cc1", "note": "(stereo not shown) [compound 7]", "values": [
      {"measurement": "fold changes relative to vehicle control", "setting": "[1]; HeLa, captured protein TRIM27", "result": 1.01},
      {"measurement": "fold changes relative to vehicle control", "setting": "[2]; HeLa, protein RRBP1", "result": 1},
      {"measurement": "fold changes relative to vehicle control", "setting": "[3]; protein SART3, HeLa", "result": 0.94},
      {"measurement": "fold changes relative to vehicle control", "setting": "[4]; protein RPL30, HeLa", "result": 0.92}
    ]},
    {"smiles": "CCCCCCOc1cccc(Cc2cnc(N)nc2N)c1", "note": "[compound 2]", "values": [
      {"measurement": "fold changes relative to vehicle control", "setting": "[5]", "result": 1.92}
    ]},
    {"smiles": "CCCCCCOc1ccc(Cc2cnc(N)nc2N)cc1", "note": "[compound 1]", "values": [
      {"measurement": "fold changes relative to vehicle control", "setting": "[5]", "result": 1.08}
    ]},
    {"smiles": "Nc1nc2cccc(-c3ccccc3)c2n1Cc1ccc(Cl)c(Cl)c1", "note": "[compound 3]", "values": [
      {"measurement": "fold changes relative to vehicle control", "setting": "[5]", "result": 1.24}
    ]},
    {"smiles": "NCCOCCOCC(=O)Nc1nc2ncc(CNc3ccc(C(=O)NC(CCC(=O)O)C(=O)O)cc3)nc2c(=O)[nH]1", "note": "(stereo not shown) [compound 6]", "values": [
      {"measurement": "fold changes relative to vehicle control", "setting": "[1]; HeLa, captured protein TRIM27", "result": 0.89},
      {"measurement": "fold changes relative to vehicle control", "setting": "[2]; HeLa, protein RRBP1", "result": 1.35},
      {"measurement": "fold changes relative to vehicle control", "setting": "[3]; protein SART3, HeLa", "result": 0.89},
      {"measurement": "fold changes relative to vehicle control", "setting": "[4]; protein RPL30, HeLa", "result": 1}
    ]},
    {"smiles": "Nc1nc2[nH]cc(CCc3ccc(C(=O)N[C@@H](CCC(=O)O)C(=O)O)cc3)c2c(=O)[nH]1", "note": "[PTX, pemetrexed]", "values": [
      {"measurement": "fold changes relative to vehicle control", "setting": "[1]", "result": 0.87},
      {"measurement": "fold changes relative to vehicle control", "setting": "[2]", "result": 1.03},
      {"measurement": "fold changes relative to vehicle control", "setting": "[3]", "result": 0.84},
      {"measurement": "fold changes relative to vehicle control", "setting": "[4]", "result": 0.89}
    ]}
  ]
}
